From patent US9539237B2, “Compositions and methods for drug-sensitization or inhibition of a cancer cell” (The Texas A&M University System, priority 2012, dated 2017)
Where two headings read alike, the source gives them in different places. Numbered stars: 1 amine (or outer) side, 2 acyl side, 3 side chain; on linkers, the order of the positions; unused ones are H or OH. Bridge positions count the residues as written; N and C are the ends. Square brackets hold non-standard residues; d marks the D form. Peptide text beside a SMILES is read from it. I, II: the chains in the order shown. Actinocin(9to1) = Cc1c2oc3c(C)ccc(C(=O)[*:1])c3nc-2c(C(=O)[*:2])c(N)c1=O; NMeV = CN[C@H](C(=O)O)C(C)C; Sar = CNCC(=O)O

Tests used:
[1] = test system: calcium mobilization; test: Calcium mobilization by Fluo-4AM staining and flow cytometry; type: cell-based
Protocol: (§1) MDR/P-gp activity is closely associated with calcium status in the cell, so calcium modulators were tested for effects on ROS. […] Relatively Dox-sensitive lymphoma (CRL2631, 10S, WSU) and ovarian carcinoma (OVCAR8) and more Dox-resistant lymphoma (G3R, 10R, WSUR) and ovarian carcinoma (ADR) were treated with 10 uM […] for 2 hrs. […] Cells were co-stained with the cell-permeable red fluorescent ROS indicator, CellROX, and cell-permeable green fluorescent calcium indicator. Fluo-4AM, and then subjected to flow cytometry to quantitate changes in ROS and calcium levels.
(§2) All samples were analyzed at the same time in flow cytometry.

[2] = test system: multi-drug resistant ovarian cancer cell line NCI/ADR-RES; test: Cell growth assay on NCI/ADR-RES cells; type: cell-based
From the text: (§3) In these experiments, the following cell lines were used: CHOP-resistant NHL cell line G3, CHOP-sensitive NHL cell line CRL2631, the multi-drug resistant sarcoma cell line MES-SA-Dx5; multi-drug-resistant breast cancer cell line MDA-MB-231, multi-drug resistant ovarian carcinoma cell line SK-OV3, multi-drug resistant ovarian cancer cell line NCI/ADR-RES, drug-sensitive ovarian cancer cell line OVCAR-5, and multi-drug resistant ovarian cancer cell line OVCAR-3.
(§4) Additional cell lines used include: ovarian cancer OVCAR-8. T lymphoblastoid leukemia MOLT-4, dexamethasone-resistant multiple myeloma MM.1R, myeloid leukemia cells HL-60, osteosarcoma cells U-2 OS, and myeloma RPMI 8226.

[3] = test system: MMP2; test: MMP2 secretion ELISA in U2-OS cells; type: cell-based; details: 5 uM RTI-79
[4] = test system: multi-drug resistant sarcoma cell line MES-SA-Dx5; test: Cell growth assay on MES-SA-Dx5 cells; type: cell-based
From the text: as §3, §4

[5] = test system: multi-drug resistant ovarian cancer cell line (NCI/ADR-RES) xenografts; test: NCI/ADR-RES xenograft efficacy studies in nude mice; type: in vivo; details: DOXIL 7 mg/kg i.v. + RTI-79 25 mg/kg oral
From the text: In a sixth efficacy study, we generated xenografts of multi-drug resistant ovarian cancer cell line (NCI/ADR-RES) by implantation of NCI/ADR-RES cell xenografts in the left and right flanks of nude mice, resulting in two tumors per mice. […] Tumor size was monitored.
In a seventh efficacy study, we generated xenografts of multi-drug resistant ovarian cancer cell line (NCI/ADR-RES) by implantation of NCI/ADR-RES cells xenografts in the left and right flanks of nude mice, resulting in two tumors per mouse. […] Tumor size was monitored.

[6] = mice treated with RTI-79 with or without DOX
Protocol: Swiss mice were dosed with levels equal to and exceeding that of intended doses.

[7] = test system: multi-drug resistant ovarian carcinoma cell line SK-OV3; test: Cell growth assay on SK-OV3 cells; type: cell-based, human
From the text: as §3, with “OVCAR-3. […]” for “OVCAR-3.”

[8] = test system: multi-drug-resistant breast cancer cell line MDA-MB-231; test: Cell growth assay on MDA-MB-231 cells; type: cell-based
From the text: as §3, §4

[9] = test system: CHOP-resistant G3 NHL cells; test: Cell growth assay (resazurin fluorescence) on G3 cells; type: cell-based, human; details: for Magnitude of potentiation in combination with doxorubicin: G3; for IC50: Homo sapiens
Protocol: Compositions were tested on CHOP-resistant G3 NHL cells that had been cultivated in RPMI medium for five days. Prior to assay, the cells were counted by haemocytometer and cell concentration standardized to 625,000 cells/ml. Test drugs were solubilized in 100% DMSO and then diluted to final assay concentration with 0.1M phosphate buffered saline (PBS) and a final DMSO concentration of 0.5%. […] The metabolic dye rezasurin was added to the wells of the assay plate at a final concentration of 20 μg/ml and the plates were incubated for an additional 24 hours. The plates were then read in a BMG Polarstar plate reader at wavelength (573-605) and the data plotted as OD versus increasing dilutions (i.e., decreasing total amounts) of rifabutin derivative concentration.
as §3, with “OVCAR-3. […]” for “OVCAR-3.”

[10] = test system: drug-sensitive ovarian cancer cell line OVCAR-5; test: Cell growth assay on OVCAR-5 cells; type: cell-based
From the text: as §3, §4

[11] = test system: VEGF; test: VEGF secretion ELISA in U2-OS cells; type: cell-based; details: RTI-79
[12] = Pharmacokinetics (plasma concentration, half-life, tissue absorption); details: after administration
[13] = test system: primary human fibroblasts; test: Comparative cytotoxicity on primary human fibroblasts; details: FIG. 3A and 3B
[14] = test system: multi-drug resistant ovarian cancer cell line OVCAR-3; test: Cell growth assay on OVCAR-3 cells; type: cell-based
From the text: as §3, §4

[15] = test system: total intracellular ROS; test: Intracellular ROS by CellROX staining and flow cytometry; type: cell-based; details: for Induction of ROS: OVCAR8, ADR-RES and G3 cells, 2 hrs, 10 uM, FIG. 38
From the text: Cells were then stained with the fluorescent ROS indicator, CellROX, and subjected to flow cytometry to quantitate total intracellular ROS.
The electron transport chain (ETC) is known to be a primary generator of ROS in the cell. Most of the ROS is generated by Complexes I and III of the ETC. Inhibition of Complex I results in electrons piling up and leaking to react with oxygen to produce ROS.
as §1, §2

[16] = test system: T lymphoblastoid leukemia MOLT-4; test: Cell growth assay on MOLT-4 cells; type: cell-based; details: with Rifabutin vs drug alone
From the text: as §4

Row | Molecule | Magnitude of potentiation in combination with doxorubicin [2] | Magnitude of potentiation in combination with doxorubicin [4] | Magnitude of potentiation in combination with doxorubicin [7] | Magnitude of potentiation in combination with doxorubicin [9] | Magnitude of potentiation in combination with doxorubicin [10] | Toxicity to normal cells [13] | Magnitude of potentiation in combination with doxorubicin [14] | Induction of ROS [15] | further results
1 | 4-deoxy-3,4[2-spiro-[1-(isobutyloxycarbonyl)-piperidin-4-yl]]-(1H)-imidazo-(2,5-dihydro)rifamycin S [RTI-79] | ++ (++ potentiation between 2.1 to 5 fold increase) | ++ (++ potentiation between 2.1 to 5 fold increase) | +++ (+++ potentiation greater than 5 fold increase) | ++ (++ potentiation between 2.1 to 5 fold increase) | + (+ potentiation between 1.2 to 2.0 fold increase) | not toxic | + (+ potentiation between 1.2 to 2.0 fold increase) | induced ROS | Time of treatment before calcium mobilization occurred ([1]; G3 cells, 10 uM RTI-79): > 15 min; MMP2 secretion [3]: 10.5 ng/million cells; Tumor volume lower than in mice receiving only DOXIL ([5]; seventh study, after 46 days): 55%; Tumor volume reduction during the course of the study ([5]; seventh study): 50%; Tumor volume lower than in mice receiving only DOXIL ([5]; sixth study, after 41 days): 66%; Heart tissue histology (H&E) and complete blood count and manual differential [6]: no significant differences; Magnitude of potentiation in combination with doxorubicin [8]: + (+ potentiation between 1.2 to 2.0 fold increase); VEGF secretion [11]: 436 pg/million cells; Time to maximal plasma concentration [12]: ≤ 3 h; Time after exposure at which increases in ROS were seen ([15]; G3 cells, 10 uM RTI-79): 1 min
2 | 11-deoxy-11-amino-4-deoxy-3,4[2-spiro-[1-(isobutyloxycarbonyl)-piperidin-4-yl]]-(1H)-imidazo-(2,5-dihydro)rifamycin S [RTI-176] |  |  | +++ (+++ potentiation greater than 5 fold increase) | +++ (+++ potentiation greater than 5 fold increase) | + (+ potentiation between 1.2 to 2.0 fold increase) | not toxic |  |  | Fold increase in potency over DOX alone ([9]; lymphoma cell line G3): 5.2 fold
3 | Cc1c2oc3c(C)ccc(C(=O)N[C@@H]4C(=O)N[C@H](C(C)C)C(=O)N5CCC[C@H]5C(=O)N(C)CC(=O)N(C)[C@@H](C(C)C)C(=O)O[C@@H]4C)c3nc-2c(C(=O)N[C@@H]2C(=O)N[C@H](C(C)C)C(=O)N3CCC[C@H]3C(=O)N(C)CC(=O)N(C)[C@@H](C(C)C)C(=O)O[C@@H]2C)c(N)c1=O [Actinomycin D, actinomycin D, reference compound] (I: T[dV]P[Sar][NMeV] / II: T[dV]P[Sar][NMeV]; ester I:1-I:C, II:1-II:C; linker I:N-II:N via Actinocin(9to1)) |  |  |  |  |  |  |  |  | Fold increase in potency ([4]; with Rifabutin vs drug alone): 3 fold; Fold increase in potency [16]: >5 fold
4 | CO[C@H]1/C=C/O[C@@]2(C)Oc3c(C)c(O)c4c(c3C2O)C2=NC3(CCN(C(=O)OCC(C)C)CC3)NC2=C(NC(=O)/C(C)=C\C=C\[C@H](C)[C@H](O)[C@@H](C)[C@@H](O)[C@@H](C)[C@H](OC(C)=O)[C@@H]1C)C4=O (stereo partly drawn) [RTI-175, 11-deoxy-11-hydroxy-4-deoxy-3,4[2-spiro-[1-(isobutyloxycarbonyl)-piperidin-4-yl]]-(1H)-imidazo-(2,5-dihydro)rifamycin S] | ++ (++ potentiation between 2.1 to 5 fold increase) | + (+ potentiation between 1.2 to 2.0 fold increase) | +++ (+++ potentiation greater than 5 fold increase) | ++ (++ potentiation between 2.1 to 5 fold increase) | ++ (++ potentiation between 2.1 to 5 fold increase) |  | + (+ potentiation between 1.2 to 2.0 fold increase) |  | IC50 [9]: > 64 µM; IC50 ([9]; read-out: IC50 (μM) with doxorubicin (1 μM)): 1.06 µM
5 | COc1cc2c(cc1OC)CN(CCc1ccc(NC(=O)c3cccc4c(=O)c5cccc(OC)c5[nH]c34)cc1)CC2 [elacridar] |  |  |  |  |  |  |  | induced ROS | Induction of calcium ([1]; FIG. 41B): induced calcium; Induction of ROS relative to control drugs ([15]; ADR and OVCAR8 cells, FIG. 41A): induced ROS
